According to PubChem BioAssay AID1963971 (Molecular Pharmacology Branch, DTP, NCI, 2024):

System: 953936-095-R-J2-PDC spheroids with HUVEC/MSC, viability
Assay: Anticancer human tumor 953936-095-R-J2-PDC patient-derived cervical squamous cell carcinoma cell line growth inhibition [PI3K]
Details: for IC50: curve of first compound; for viability, T/C: stronger effect = lower value; active means viability on the fitted dose curve at most 10% of control; inactive means the rest
How it was run: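 Tumor cells grown as multi-cell spheroids with HUVEC endothelial cells and MSC fibroblast-like stroma were treated with targeted agents combined with inavolisib, alpelisib, duvelisib or copanlisib. Doses fell in half-log steps from near clinical Cmax, else from 10 microM. Viability was measured.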

[1] = second compound 0.0316 µM, first compound 0.0316 µM
[2] = second compound 0.0316 µM, first compound 0.1 µM
[3] = second compound 0.0316 µM, first compound 0.316 µM
[4] = second compound 0.0316 µM, first compound 1 µM
[5] = second compound 0.0316 µM, first compound 3.16 µM
[6] = second compound 0.0316 µM, first compound 10 µM
[7] = second compound 0.1 µM, first compound 0.0316 µM
[8] = second compound 0.1 µM, first compound 0.1 µM
[9] = second compound 0.1 µM, first compound 0.316 µM
[10] = second compound 0.1 µM, first compound 1 µM
[11] = second compound 0.1 µM, first compound 3.16 µM
[12] = second compound 0.1 µM, first compound 10 µM
[13] = second compound 0.316 µM, first compound 0.0316 µM
[14] = second compound 0.316 µM, first compound 0.1 µM
[15] = second compound 0.316 µM, first compound 0.316 µM
[16] = second compound 0.316 µM, first compound 1 µM
[17] = second compound 0.316 µM, first compound 3.16 µM
[18] = second compound 0.316 µM, first compound 10 µM
[19] = second compound 1 µM, first compound 0.0316 µM
[20] = second compound 1 µM, first compound 0.1 µM
[21] = second compound 1 µM, first compound 0.316 µM
[22] = second compound 1 µM, first compound 1 µM
[23] = second compound 1 µM, first compound 3.16 µM
[24] = second compound 1 µM, first compound 10 µM
[25] = second compound 3.16 µM, first compound 0.0316 µM
[26] = second compound 3.16 µM, first compound 0.1 µM
[27] = second compound 3.16 µM, first compound 0.316 µM
[28] = second compound 3.16 µM, first compound 1 µM
[29] = second compound 3.16 µM, first compound 3.16 µM
[30] = second compound 3.16 µM, first compound 10 µM
[31] = second compound 10 µM, first compound 0.0316 µM
[32] = second compound 10 µM, first compound 0.1 µM
[33] = second compound 10 µM, first compound 0.316 µM
[34] = second compound 10 µM, first compound 1 µM
[35] = second compound 10 µM, first compound 3.16 µM
[36] = second compound 10 µM, first compound 10 µM
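Further: spheroids exposed to compounds for seven days before read-out.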

C=CC(=O)N1CCN(c2nc(=O)n(-c3c(C)ccnc3C(C)C)c3nc(-c4c(O)cccc4F)c(F)cc23)C(C)C1 (centres undefined) + CC(Nc1ncnc2nc[nH]c12)c1cc2cccc(Cl)c2c(=O)n1-c1ccccc1
inactive: viability, T/C [1] 92.8% | viability, T/C [2] 112% | viability, T/C [3] 121% | viability, T/C [4] 119% | viability, T/C [5] 118% | viability, T/C [6] 129% | viability, T/C [7] 104% | viability, T/C [8] 108% | viability, T/C [9] 110% | viability, T/C [10] 122% | viability, T/C [11] 132% | viability, T/C [12] 111% | viability, T/C [13] 94.2% | viability, T/C [14] 106% | viability, T/C [15] 111% | viability, T/C [16] 118% | viability, T/C [17] 113% | viability, T/C [18] 128% | viability, T/C [19] 91.1% | viability, T/C [20] 97.7% | viability, T/C [21] 99% | viability, T/C [22] 118% | viability, T/C [23] 110% | viability, T/C [24] 113% | viability, T/C [25] 85% | viability, T/C [26] 79.2% | viability, T/C [27] 79.7% | viability, T/C [28] 88.1% | viability, T/C [29] 107% | viability, T/C [30] 105% | viability, T/C [31] 63.7% | viability, T/C [32] 67% | viability, T/C [33] 62.3% | viability, T/C [34] 82.6% | viability, T/C [35] 85.3% | viability, T/C [36] 81%
> 10000 nM: IC50 (second compound 0.0316 µM) | IC50 (second compound 0.1 µM) | IC50 (second compound 0.316 µM) | IC50 (second compound 1 µM) | IC50 (second compound 3.16 µM) | IC50 (second compound 10 µM)

CC(C)NCC(C(=O)N1CCN(c2ncnc3c2C(C)CC3O)CC1)c1ccc(Cl)cc1 (centres undefined) + CC(Nc1ncnc2nc[nH]c12)c1cc2cccc(Cl)c2c(=O)n1-c1ccccc1
active: viability, T/C [36] 9.46%
873 nM: IC50 (second compound 3.16 µM)
393 nM: IC50 (second compound 10 µM)
922 nM: IC50 (second compound 0.316 µM)
952 nM: IC50 (second compound 0.0316 µM)
inactive: viability, T/C [1] 94.7% | viability, T/C [2] 99.8% | viability, T/C [3] 77.9% | viability, T/C [4] 49.6% | viability, T/C [5] 22.6% | viability, T/C [6] 14.1% | viability, T/C [7] 100% | viability, T/C [8] 104% | viability, T/C [9] 75.8% | viability, T/C [10] 52.5% | viability, T/C [11] 24.3% | viability, T/C [12] 14.3% | viability, T/C [13] 111% | viability, T/C [14] 98.1% | viability, T/C [15] 82% | viability, T/C [16] 47.9% | viability, T/C [17] 23.1% | viability, T/C [18] 17.1% | viability, T/C [19] 104% | viability, T/C [20] 82.9% | viability, T/C [21] 73.5% | viability, T/C [22] 53.9% | viability, T/C [23] 26.2% | viability, T/C [24] 13.4% | viability, T/C [25] 79.7% | viability, T/C [26] 79.1% | viability, T/C [27] 72.9% | viability, T/C [28] 45.7% | viability, T/C [29] 23.6% | viability, T/C [30] 12.7% | viability, T/C [31] 61.1% | viability, T/C [32] 58.3% | viability, T/C [33] 51.7% | viability, T/C [34] 40% | viability, T/C [35] 20.1%
1010 nM: IC50 (second compound 0.1 µM)
1050 nM: IC50 (second compound 1 µM)
